# Reference: patent US7507760B2, “N-type calcium channel blockers” (Neuromed Pharmaceuticals Ltd., priority 2004, dated 2009)
# Read-outs that look alike come from different tables or passages of the source.
# Columns and labels:
# [1] = tested on: T-type over L-type channels; settings: cited from earlier work
# [2] = biological target: T1, L-type channels (α1C+α2δ+β1b cDNA subunits) (Homo sapiens, UniProt Q13936); assay: Selectivity for N-type over L-type channels, whole cell patch recordings in HEK 293 cells; type: cell-based
# T1 construct: expressed in transfected cells; host or cells: HEK 293 (human embryonic kidney cells)
# T1 sequence (Q13936 whole entry): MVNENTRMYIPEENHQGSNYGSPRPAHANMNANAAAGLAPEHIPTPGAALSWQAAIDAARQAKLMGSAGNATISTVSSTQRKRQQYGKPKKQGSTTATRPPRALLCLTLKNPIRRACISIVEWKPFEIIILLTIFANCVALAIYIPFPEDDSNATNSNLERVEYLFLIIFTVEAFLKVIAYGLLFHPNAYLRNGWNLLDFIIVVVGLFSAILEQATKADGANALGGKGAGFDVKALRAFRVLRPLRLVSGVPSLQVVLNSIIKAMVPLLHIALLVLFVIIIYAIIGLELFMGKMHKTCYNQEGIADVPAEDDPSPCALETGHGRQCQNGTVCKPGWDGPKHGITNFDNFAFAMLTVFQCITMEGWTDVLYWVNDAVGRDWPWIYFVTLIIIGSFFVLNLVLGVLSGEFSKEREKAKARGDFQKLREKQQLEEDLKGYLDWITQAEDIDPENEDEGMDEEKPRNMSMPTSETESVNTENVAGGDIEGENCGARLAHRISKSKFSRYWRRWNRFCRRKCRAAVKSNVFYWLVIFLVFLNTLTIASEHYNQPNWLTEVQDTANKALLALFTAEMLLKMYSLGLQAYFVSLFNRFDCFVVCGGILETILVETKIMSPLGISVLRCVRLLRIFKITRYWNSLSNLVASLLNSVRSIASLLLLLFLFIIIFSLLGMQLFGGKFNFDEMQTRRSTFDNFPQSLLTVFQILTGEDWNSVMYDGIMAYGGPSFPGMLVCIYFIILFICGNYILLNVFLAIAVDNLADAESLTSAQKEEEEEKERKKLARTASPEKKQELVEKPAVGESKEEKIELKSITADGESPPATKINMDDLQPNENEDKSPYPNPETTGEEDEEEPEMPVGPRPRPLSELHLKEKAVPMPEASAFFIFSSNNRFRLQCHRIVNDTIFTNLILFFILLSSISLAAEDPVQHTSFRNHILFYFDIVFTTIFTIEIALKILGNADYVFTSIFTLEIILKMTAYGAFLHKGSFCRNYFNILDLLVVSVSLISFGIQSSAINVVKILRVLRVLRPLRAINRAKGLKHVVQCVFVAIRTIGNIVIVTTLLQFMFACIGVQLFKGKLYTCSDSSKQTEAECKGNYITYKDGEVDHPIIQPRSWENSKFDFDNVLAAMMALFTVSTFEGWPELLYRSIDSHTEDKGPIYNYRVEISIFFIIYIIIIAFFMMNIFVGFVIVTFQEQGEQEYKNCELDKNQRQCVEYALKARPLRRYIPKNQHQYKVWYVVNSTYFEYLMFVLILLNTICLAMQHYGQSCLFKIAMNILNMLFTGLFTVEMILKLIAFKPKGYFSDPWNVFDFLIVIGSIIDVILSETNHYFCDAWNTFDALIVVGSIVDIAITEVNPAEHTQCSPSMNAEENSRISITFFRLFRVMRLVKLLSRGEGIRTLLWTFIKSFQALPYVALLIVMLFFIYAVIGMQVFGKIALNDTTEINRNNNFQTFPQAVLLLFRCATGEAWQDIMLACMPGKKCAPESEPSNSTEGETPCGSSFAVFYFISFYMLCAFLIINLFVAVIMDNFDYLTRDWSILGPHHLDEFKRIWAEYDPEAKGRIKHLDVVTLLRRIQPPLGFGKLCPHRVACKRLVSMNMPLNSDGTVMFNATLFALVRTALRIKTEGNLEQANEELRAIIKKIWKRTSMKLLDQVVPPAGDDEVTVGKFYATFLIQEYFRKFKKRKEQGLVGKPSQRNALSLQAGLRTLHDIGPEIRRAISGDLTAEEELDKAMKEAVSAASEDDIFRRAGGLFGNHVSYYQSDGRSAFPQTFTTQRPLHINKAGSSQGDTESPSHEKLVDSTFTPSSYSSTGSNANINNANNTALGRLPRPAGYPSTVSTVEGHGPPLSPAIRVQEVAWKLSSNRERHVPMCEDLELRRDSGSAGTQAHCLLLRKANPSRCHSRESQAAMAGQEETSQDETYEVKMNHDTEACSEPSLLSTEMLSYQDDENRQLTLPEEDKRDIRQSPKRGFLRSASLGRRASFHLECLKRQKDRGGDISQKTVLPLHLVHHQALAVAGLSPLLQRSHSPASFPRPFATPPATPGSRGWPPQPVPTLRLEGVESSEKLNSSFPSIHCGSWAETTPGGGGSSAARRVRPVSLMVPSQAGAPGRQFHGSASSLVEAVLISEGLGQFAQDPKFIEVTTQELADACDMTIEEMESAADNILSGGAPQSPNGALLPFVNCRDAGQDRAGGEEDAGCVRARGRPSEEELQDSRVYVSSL
# T1 sequence (P54289 25-956 partner limits assumed): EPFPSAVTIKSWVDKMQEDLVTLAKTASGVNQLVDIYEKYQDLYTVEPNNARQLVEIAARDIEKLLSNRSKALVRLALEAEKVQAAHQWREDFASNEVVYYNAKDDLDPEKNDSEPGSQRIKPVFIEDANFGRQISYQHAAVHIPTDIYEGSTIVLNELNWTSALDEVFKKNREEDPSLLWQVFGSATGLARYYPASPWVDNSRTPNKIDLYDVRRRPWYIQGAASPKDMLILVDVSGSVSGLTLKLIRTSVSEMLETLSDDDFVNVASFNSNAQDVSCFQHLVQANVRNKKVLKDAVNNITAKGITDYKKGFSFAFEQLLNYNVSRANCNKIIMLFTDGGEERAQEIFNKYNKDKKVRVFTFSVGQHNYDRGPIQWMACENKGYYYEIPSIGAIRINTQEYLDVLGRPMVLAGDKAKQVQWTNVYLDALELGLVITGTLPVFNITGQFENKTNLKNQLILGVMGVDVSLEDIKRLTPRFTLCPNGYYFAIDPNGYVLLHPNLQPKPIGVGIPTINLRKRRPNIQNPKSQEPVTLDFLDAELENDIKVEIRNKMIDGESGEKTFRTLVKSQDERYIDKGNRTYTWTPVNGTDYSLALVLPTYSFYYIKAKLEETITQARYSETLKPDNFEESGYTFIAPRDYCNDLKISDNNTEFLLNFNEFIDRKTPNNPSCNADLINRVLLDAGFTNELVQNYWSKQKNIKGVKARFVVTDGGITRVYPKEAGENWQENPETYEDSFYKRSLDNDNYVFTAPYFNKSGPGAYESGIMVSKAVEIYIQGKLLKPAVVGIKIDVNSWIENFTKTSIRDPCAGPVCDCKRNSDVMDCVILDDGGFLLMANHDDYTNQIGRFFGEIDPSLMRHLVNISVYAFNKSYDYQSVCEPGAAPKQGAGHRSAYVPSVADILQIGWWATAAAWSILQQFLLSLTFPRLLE
# T1 sequence (P54289 957-1103 partner limits assumed): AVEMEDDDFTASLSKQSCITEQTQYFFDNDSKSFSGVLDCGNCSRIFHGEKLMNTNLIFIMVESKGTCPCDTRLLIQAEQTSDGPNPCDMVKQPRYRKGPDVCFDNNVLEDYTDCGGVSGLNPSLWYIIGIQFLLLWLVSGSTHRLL
# T1 sequence (Q02641 whole entry partner): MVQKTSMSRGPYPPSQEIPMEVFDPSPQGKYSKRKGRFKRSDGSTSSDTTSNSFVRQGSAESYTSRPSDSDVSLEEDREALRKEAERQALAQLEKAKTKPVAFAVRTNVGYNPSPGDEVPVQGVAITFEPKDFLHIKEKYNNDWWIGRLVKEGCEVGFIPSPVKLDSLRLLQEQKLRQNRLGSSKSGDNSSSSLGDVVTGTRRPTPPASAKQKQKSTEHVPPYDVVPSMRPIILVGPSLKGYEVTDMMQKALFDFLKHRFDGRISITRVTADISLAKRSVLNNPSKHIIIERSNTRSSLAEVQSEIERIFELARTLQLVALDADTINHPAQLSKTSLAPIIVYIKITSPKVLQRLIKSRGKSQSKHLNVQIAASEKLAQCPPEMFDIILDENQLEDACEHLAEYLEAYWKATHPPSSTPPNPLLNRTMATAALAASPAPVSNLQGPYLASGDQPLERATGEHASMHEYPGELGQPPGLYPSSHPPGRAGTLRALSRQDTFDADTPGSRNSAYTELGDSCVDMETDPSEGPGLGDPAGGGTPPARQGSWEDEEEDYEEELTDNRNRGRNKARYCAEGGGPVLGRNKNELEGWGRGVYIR
# Experimental: (§1) Calcium channel blocking activity was measured using whole cell patch recordings on human embryonic kidney cells transiently expressing rat α1B+α2δ+β1b channels (N-type channels) with 5 mM barium as a charge carrier. Channel block was also measured in P/Q-type channels (α1A+α2δ+β1b cDNA subunits) and L-type channels (α1C+α2δ+β1b cDNA subunits).
# (§2) HEK 293 Host cells (ATCC# CRL 1573) were grown in standard DMEM medium supplemented with 2 mM glutamine and 10% fetal bovine serum. HEK 293 cells were transfected by a standard calcium-phosphate-DNA coprecipitation method using the rat α1B+β1b+α2δ N-type calcium channel subunits in a vertebrate expression vector (for example, see Current Protocols in Molecular Biology).
# (§3) After an incubation period of 24 to 72 hours, the culture medium was removed and replaced with external recording solution (see below). Whole cell patch clamp experiments were performed using an Axopatch 200B amplifier (Axon Instruments, Burlingame, Calif.) linked to an IBM compatible personal computer equipped with pCLAMP software. Borosilicate glass patch pipettes (Sutter Instrument Co., Novato, Calif.) were polished (Microforge, Narishige, Japan) to a resistance of about 4 MΩ when filled with cesium methanesulfonate internal solution (composition in MM: 109 CsCH3 SO4, 4 MgCl2, 9 EGTA, 9 HEPES, pH 7.2). Cells were bathed in 5 mM Ba^++ (in mM: 5 BaCl2, 1 MgCl2, 10 HEPES, 40 tetraethylammonium chloride, 10 glucose, 87.5 CsCl pH 7.2). Current data shown were elicited by a train of 100 ms test pulses at 0.066 Hz from −100 mV and/or −80 mV to various potentials (min. −20 mV, max. +30 mV). Drugs were perfused directly into the vicinity of the cells, using a microperfusion system.
# (§4) Normalized dose-response curves were fit (Sigmaplot 4.0, SPSS Inc., Chicago, Ill.) by the Hill equation to determine IC50 values. Steady-state inactivation curves were plotted as the normalized test pulse amplitude following 5 s inactivating prepulses at +10 mV increments. Inactivation curves were fit (Sigmaplot 4.0) with the Boltzman equation, Ipeak (normalized)=1/(1+exp((V-Vh)z/25.6)), where V and Vh are the conditioning and half inactivation potentials, respectively, and z is the slope factor.
# (§5) The same protocol was followed for cell lines expressing P/Q-type channels and L-type channels.
# [3] = biological target: T2, human α1G T-type channels (Homo sapiens, UniProt O43497); assay: Block of α1G T-type channels, whole-cell patch clamp in HEK cells; type: cell-based; settings: test pulse −40 mV
# T2 construct: expressed in transfected cells
# Experimental: Standard patch-clamp techniques were employed to identify blockers of T-type currents. Briefly, previously described HEK cell lines stably expressing human α1G T-type channels were used for all the recordings (passage #: 4-20, 37° C., 5% CO2). To obtain T-type currents, plastic dishes containing semi-confluent cells were positioned on the stage of a ZEISS AXIOVERT S100 microscope after replacing the culture medium with external solution (Table 3). Whole-cell patches were obtained using pipettes (borosilicate glass with filament, O.D.: 1.5 mm, I.D.: 0.86 mm, 10 cm length), fabricated on a SUTTER P-97 puller with resistance values of ˜5 MΩ (Table 4 ).
# T-type currents were reliably obtained by using two voltage protocols: “non-inactivating”, and “inactivation”. In the non-inactivating protocol, the holding potential is set at −110 mV and with a pre-pulse at −100 mV for 1 second prior to the test pulse at −40 mV for 50 ms. In the inactivation protocol, the pre-pulse is at approximately −85 mV for 1 second, which inactivates about ^15% of the T-type channels.
# Test compounds were dissolved in external solution, 0.1-0.01% DMSO. After ˜10 min rest, they were applied by gravity close to the cell using a WPI microfil tubing. The “non-inactivated” pre-pulse was used to examine the resting block of a compound. The “inactivated” protocol was employed to study voltage-dependent block. However, the initial data shown below were mainly obtained using the non-inactivated protocol only. IC50 values are shown for various compounds of the invention in Table 5.
# [4] = biological target: T3, P/Q-type channels (α1A+α2δ+β1b cDNA subunits) (Homo sapiens, UniProt O00555); assay: Selectivity for N-type over P/Q-type channels, whole cell patch recordings in HEK 293 cells; type: cell-based
# T3 construct: expressed in transfected cells; host or cells: HEK 293 (human embryonic kidney cells)
# Experimental: as §1, §2, §3, §4, §5
# [5] = biological target: T4, rat brain N-type calcium channel subunits (α1B+α2δ+β1b cDNA subunits) (Rattus norvegicus, UniProt Q02294); assay: N-type calcium channel block, whole cell patch clamp in HEK 293 cells; type: cell-based; settings: holding potential −80 mV to +10 mV, 5 mM BaCl2
# T4 construct: expressed in transfected cells; host or cells: HEK 293
# Description: as §4
# The methods of Example 11 were followed with slight modifications as will be apparent from the description below.
# N-type calcium channel blocking activity was assayed in human embryonic kidney cells, HEK 293, stably transfected with the rat brain N-type calcium channel subunits (α1B+α2δ+β1b cDNA subunits). Briefly, cells were cultured in Dulbecco's modified eagle medium (DMEM) supplemented with 10% fetal bovine serum, 200 U/ml penicillin and 0.2 mg/ml streptomycin at 37° C. with 5% CO2. At 85% confluency, cells were split with 0.25% trypsin/1 mM EDTA and plated at 10% confluency on glass coverslips. At 12 hours the medium was. replaced and the cells transfected using a standard calcium phosphate protocol and the appropriate calcium channel cDNAs. Fresh DMEM was supplied and the cells transferred to 28° C./5% CO2. Cells were incubated for 1 to 2 days to whole cell recording.
# Whole cell patch clamp experiments were performed using an Axopatch 200B amplifier (Axon Instruments, Burlingame, Calif.) linked to a personal computer equipped with pCLAMP software. The external and internal recording solutions contained, respectively, 5 mM BaCl2, 10 mM MgCl2, 10 mM HEPES, 40 mM TEACl, 10 mM glucose, 87.5 mM CsCl (pH 7.2) and 108 mM CsMS, 4 mM MgCl2, 9 mM EGTA, 9 mM HEPES (pH 7.2). Currents were typically elicited from a holding potential of −80 mV to +10 mV using Clampex software (Axon Instruments). Typically, currents were first elicited with low frequency stimulation (0.067 Hz) and allowed to stabilize prior to application of the compounds. The compounds were then applied during the low frequency pulse trains for two to three minutes to assess tonic block, and subsequently the pulse frequency was increased to 0.2 Hz to assess frequency dependent block. Data were analyzed using Clampfit (Axon Instruments) and SigmaPlot 4.0 (Jandel Scientific).
# [6] = tested on: rat formalin model (paw flinches); assay: Formalin-induced pain model; type: in vivo; settings: 30 mg/kg IP, 10 minutes prior to formalin, saline control=100%
# Experimental: […] The compounds were reconstituted to stock solutions of approximately 10 mg/ml in propylene glycol. Eight Holtsman male rats of 275-375 g size were randomly selected per test article.
# The following study groups in Table 6 were used, with test article, vehicle control (propylene glycol) and saline delivered intraperitoneally (IP):
# Prior to initiation of drug delivery, baseline behavioral and testing data were taken.
# On the morning of testing, a small metal band (0.5 g) was loosely placed around the right hind paw. The rat was placed in a cylindrical Plexiglas chamber for adaptation a minimum of 30 minutes. Test Article or Vehicle Control Article was administered 10 minutes prior to formalin injection (50 μl of 5% formalin) into the dorsal surface of the right hindpaw of the rat. The animal was then placed into the chamber of the automated formalin apparatus where movement of the formalin injected paw was monitored and the number of paw flinches tallied by minute over the next 60 minutes (Malmberg, A. B., supra).
# Results are presented as Maximum Possible Effect±SEM, where saline control=100% (Table 7)
# [7] = −80 mV (inactivation protocol), read-out: IC50 at −80 mV
# [8] = −100 mV (non-inactivating protocol), read-out: IC50 at −100 mV
# [9] = frequency dependent block, pulse frequency 0.2 Hz, read-out: IC50 at 0.2 Hz
# [10] = tonic block, low frequency stimulation 0.067 Hz, read-out: IC50 at 0.067 Hz
selectivity for N-type over L-type channels [2],"IC50 [3, 7] [nM]","IC50 [3, 8] [nM]",selectivity for N-type over P/Q-type channels [4],"IC50 [5, 9] [nM]","IC50 [5, 10] [nM]",Compound,selective for T-type over L-type channels [1],"Maximum Possible Effect ± SEM, Phase I [6] [%]","Maximum Possible Effect ± SEM, Phase II [6] [%]","Maximum Possible Effect ± SEM, Phase IIA [6] [%]"
,,,,,,COCC(=O)O[C@]1(CCN(C)CCCc2nc3ccccc3[nH]2)CCc2cc(F)ccc2[C@@H]1C(C)C [Mibefradil],10-30 fold,,,
greater than 2000 fold,13,73,approximately 31 fold,29,45,"(S)-6,6-Bis-(4-fluoro-phenyl)-hexanoic acid[1-(3,5-di-tert-butyl-4-methoxy-benzoyl)-pyrrolidin-3-yl]-methyl-amide [Compound P5]",,88 ± 13,62 ± 4,47 ± 5
greater than 1000 fold,51,117,approximately 9 fold,32,67,"(R)-6,6-Bis-(4-fluoro-phenyl)-hexanoic acid[1-(3,5-di-tert-butyl-4-methoxy-benzoyl)-pyrrolidin-3-yl]-methyl-amide [Compound P2]",,70 ± 8,82 ± 9,71 ± 12
~75 fold,8,,approximately 23 fold,91,120,"COc1c(C(C)(C)C)cc(C(=O)N(C)[C@@H]2CCN(C(=O)CCCCC(c3ccc(F)cc3)c3ccc(F)cc3)C2)cc1C(C)(C)C [Compound P1, (R)—N-{1-[6,6-Bis-(4-fluoro-phenyl)-hexanoyl]-pyrrolidin-3-yl}-3,5-di-tert-butyl-4-methoxy-N-methyl-benzamide]",,94 ± 11,79 ± 14,72 ± 16
